Experimental findings from patent publication US11236055B2 (Venenum Biodesign, LLC, priority 2016, dated 2022) are described below.

Holding throughout (format): in vivo, mouse
A short description of series [1]: Comparison of PK in DIO mice and lean mice. The following applies: for Cmax / Tmax / AUC(0-t): mouse, plasma, po; for AUC(0-t): read-out: AUC (0-4 h). The protocol: Comparison of PK in DIO Mice and Lean Mice
The PK characteristics of Compound 20AA were examined in non-fasted lean C57BL/6N and DIO mice (Taconic). Compound 20AA was orally administered to both groups at 10 mg/kg by oral gavage and plasma concentration of the compound was determined as described in Example 59.
In addition, PK parameters were determined for Compound 20AA (i.e., Cmax, Tmax and AUC) following oral administration in four groups of mice: (i) fasted lean mice; (ii) non-fasted lean mice; (iii) non-fasted DIO mice; and (iv) lean mice receiving ABT.

Series [2] relates to DIO mice. Briefly: Food intake after multiple days of dosing in DIO mice. The following applies: DIO mice on high fat diet, oral BID for 12 days. The protocol:
Monitoring of Food Intake after Multiple Days of Dosing Compounds
Compounds of the present invention were dosed for multiple days and were evaluated for their ability to cause mice to have a lower food intake. Mice were dosed compounds for 12 days as per the protocol in Example 66.
The HFD (Research Diets, D12492, 60% fat kcal) is placed at the bottom of the cage of a singly-housed animal. The remaining food in each cage is recovered and weighed again at the same time of day 3 or 4 days later. The difference in the starting and ending food weight represents the amount of food consumed. Daily food intake is calculated by averaging over a 3 or 4 day period every week.

Series [3] deals with DIO mice. Put plainly: Weight loss after multiple days of dosing in DIO mice. The settings on record: DIO mice on high fat diet, oral BID for 12 days. The protocol: Monitoring of Weight Loss after Multiple Days of Dosing Compounds
Compounds of the present invention were dosed for multiple days and were evaluated for their ability to cause mice to lose weight. In the next series of studies (Examples 66-70), Male DIO mice were received at 12 weeks of age (from Taconic), and were single-housed at the testing facility and acclimated for at least 2 weeks. The mice were provided a high fat diet [Research Diet D12492 (60% Fat kcal)] while in the testing facility. Before the study initiation, the animals were randomized into 5 experimental groups by body weight. The vehicle group contained only 0.5% carboxymethylcellulose (medium viscosity)+0.25% Tween-80. The second group contained 10 mg/kg of the DPP-IV inhibitor Linagliptin while the third group contained 10 mg/kg Compound 20BG. The fourth group contained the combination of 10 mg/kg Linagliptin and 10 mg/kg Compound 20BG. The fifth group was the positive control for weight loss, Liraglutide. All mice, except the Liraglutide group, were dosed BID at approximately 6:00 am and again at approximately […]. The positive control liraglutide was administered at a dose of 0.2 mg/kg subcutaneously in the afternoon.
Compounds of the present invention were evaluated for their ability to cause mice to lose weight. Mice were dosed compounds for 12 days and body weights were recorded twice a week.

The nature of series [4]: Bile weight after multiple days of dosing in DIO mice. The settings on record: 12 days of dosing, about 6 h after final dose. The protocol: No Bile Weight Increase after Multiple Days of Dosing Compounds
Compounds of the present invention were dosed for multiple days and evaluated for an increase in bile weight within the gallbladder. In this example, the protocol from Example 66 was utilized. In week 2 of the study, mice were euthanized and bile was removed from the gallbladder about 6 hours after the final dose and the bile was weighed to approximate the volume of bile contained within the bladder.

Setting [5] is: C57BL/6N, 10 mg/kg, DIO mice, non-fasted, 10 mpk.
The mark [6] stands for this setting: C57BL/6N, 10 mg/kg, Lean mice, non-fasted, 10 mpk.
Where [7] appears, read: C57BL/6N, 10 mg/kg, Non-fasted DIO mice, 10 mg/kg oral.
The mark [8] stands for this setting: C57BL/6N, 10 mg/kg, Non-fasted Lean mice, 10 mg/kg oral.
Where [9] appears, read: Fasted Lean mice, oral administration.

Read-outs that look alike come from different tables or passages of the source.

One may read the Cmax as the highest concentration seen after dosing. The term Tmax denotes the time at which the peak concentration occurs. Turning to `Cc1cnccc1-c1cccc(C(C)(C)N(CCCC(=O)NCCS(=O)(=O)O)S(=O)(=O)c2ccccc2C(F)(F)F)c1` [Compound 20AA, 2-(4-(N-(2-(3-(3-methylpyridin-4-yl)phenyl)propan-2-yl)-2-(trifluoromethyl)phenylsulfonamido)butanamido)ethanesulfonic acid], the Cmax in series [1] (setting [5]) worked out at 1.7 nM; in series [1] (setting [6]), 3 nM; in series [1] (setting [7]) it was 1.7 nM; in series [1] (setting [8]), 3 nM; in series [1] (setting [9]), 7.2 nM. Also, the Tmax came to 1 h in series [1] (setting [5]); 1 h in series [1] (setting [6]); 1 h in series [1] (setting [7]); 0.25 h in series [1] (setting [8]); 1 h in series [1] (setting [9]). In addition, the AUC(0-t) in series [1] (setting [7]) came to 7.6 ng·h/mL; in series [1] (setting [8]), 4 ng·h/mL; in series [1] (setting [9]), 26 ng·h/mL. Moreover, the “PK profile (Cmax, Tmax, AUC)” value in series [1] (lean and DIO mice, fasted or non-fasted, oral administration) is “low PK profile”.

Turning to `CCc1cnccc1-c1cccc([C@H](C)N(CCCC(=O)NCCS(=O)(=O)NCC(=O)O)S(=O)(=O)c2ccccc2C(F)(F)F)c1` [Compound 20BG], in the series with DIO mice [2], the food intake entry is reported as “no significant effect”. Besides, in the series on DIO mice [3], the body weight change result was “modest weight loss”. Further, the “bile weight / gallbladder size” value in series [4] was “does not show an increase”.
